Biological target: Neutravidin (Gallus gallus, UniProt P02701)
Assay: surface capture of BSA-biotin on Neutravidin coated MALDI target, competition by free biotin
Type: binding
Details: MALDI target coated with PLL-PEG-biotin and Neutravidin; MALDI mass spectrum readout
Text: The specificity of the surface capture was confirmed with the following experiments. BSA-Biotin was deposited on the MALDI target without Neutravidin or without the Biotin layer. BSA-Biotin was not detected in either case. Furthermore, binding of BSA-biotin to the Neutravidin coated surface is inhibited by the presence of free biotin. The database search results for BSA-biotin are presented in the appendix A.
MALDI targets are cleaned before use with acetone, acetonitrile, double distilled water and dried under nitrogen. Each position on the MALDI target is coated with 500 nanoliter 1%PLL-PEG-2%Biotin solution dissolved in desalting buffer. The target is then placed in a humid chamber for one hour at room temperature. Unbound PLL-PEG is rinsed with […] washing buffer followed by two washes with […] washing buffer. The target surface is dried under nitrogen. The PLL-PEG coating is then overlaid with 500 nanoliter of 0.5 mg/ml Neutravidin at each position of the array, incubated for one hour at RT in a humid chamber, rinsed with washing buffer, washed twice with […] washing buffer and dried under nitrogen. THE MALDI target is now ready to be used as a highly specific affinity capture surface. […]

Neutravidin, sequence (P02701 25-152): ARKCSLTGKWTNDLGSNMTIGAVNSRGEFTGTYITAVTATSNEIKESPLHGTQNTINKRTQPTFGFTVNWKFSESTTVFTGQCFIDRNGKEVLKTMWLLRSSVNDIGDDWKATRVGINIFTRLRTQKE

## O=C(O)CCCC[C@@H]1SC[C@@H]2NC(=O)N[C@@H]21 [biotin]
  binding of BSA-biotin to the Neutravidin coated surface in the presence of free biotin: inhibited
